In patent US5444151A, “Platelet derived growth factor antagonists” (Ludwig Institute for Cancer Research, priority 1992, dated 1995):
“Also recorded” adds a separate entry of the source. Read-outs that look alike come from different tables or passages of the source. Numbered stars: 1 amine (or outer) side, 2 acyl side, 3 side chain; on linkers, the order of the positions; unused ones are H or OH. Square brackets hold non-standard residues; d marks the D form. Ends that are not written are not given here. Peptide text beside a SMILES is read from it. X2 = O=C([C@H](Cc1c(Sc2ccccc2[N+](=O)[O-])[nH]c2ccccc12)N[*:1])[*:2]

Experiments:
PDGF-α receptor = molecular target: T1, PDGF-α receptor (Homo sapiens, UniProt P16234); assay: Competition with 125I-PDGF-AA for binding to AG1518 fibroblasts; conditions: for Receptor competing activity, PDGF-AA binding (in words): AG1518 cells
T1 construct: cultures of human foreskin fibroblast cell line AG1518; endogenous in cells; host or cells: AG1518 human foreskin fibroblasts
Description: (§1) In order to test for receptor binding, cultures of human foreskin fibroblast cell line AG1518 (obtained from the Human Mutant Cell Repository), were grown to confluence in Ham's F-12 medium containing 10% newborn calf serum. Those cells which were to be used in analysis of PDGF-β receptor binding were preincubated for 60 minutes at 37° C. in 0.5 ml/well of Ham's F-12 medium, supplemented with 1 mg/ml of bovine serum albumin (BSA), and 50 ng/ml of PDGF-AA. This combination down regulates PDGF-α receptor, as per Claesson-Welsh et al., J. Biol. Chem. 264: 1742-1747 (1989).
(§2) Cells were prepared for receptor binding analyses by washing with ice cold binding buffer (phosphate buffered saline with 0.9 mM CaCl2, 0.49 mM MgSO4 and 1 mg/ml BSA). The cells were then incubated on ice for 90 minutes with different concentrations (0-100 ug/ml) of synthetic peptides (listed in Table 1, infra), in 0.5 ml of binding buffer per well. […] The labelled ligand was added and then incubated for 60 minutes at 0° C. after which the cells were washed five times with ice cold binding buffer. The washed cells were then lysed for 60 minutes at room temperature in a lysis buffer (1% Triton X-100, 10% glycerol, 20 mM Tris-HCl, pH 7.5). Solubilized radioactivity was determined in a gamma counter. Competing activities of synthetic peptides were compared to standard curves, using unlabelled ligand.

PDGF-β receptor [1] = molecular target: T2, PDGF-β receptor (Homo sapiens, UniProt P09619); assay: Competition with 125I-PDGF-BB for binding to AG1518 fibroblasts (α receptor down regulated by PDGF-AA preincubation)
T2 construct: cultures of human foreskin fibroblast cell line AG1518; endogenous in cells; host or cells: AG1518 human foreskin fibroblasts (Human Mutant Cell Repository)
Description: as §1, §2
In Table 2, "+++" means <30 μM; "++" from 30-60 μM; "+" 60-150 μM; and "-", >150 μM.

[2] = tested on: human foreskin fibroblasts; assay: Ligand stimulated [3H]thymidine incorporation; assay type: cell-based; conditions: for [3H]thymidine incorporation, ligand alone: no peptide (unstimulated control 483 cpm)
Description: The possible role of peptide 16T as an antagonist for PDGF activity in vivo was investigated. Following the methodology of Betsholtz et al., J. Cell Physiol 118: 203-210 (1984), the disclosure of which is incorporated by reference, [^3 H] thymidine incorporation by human fibroblasts in the presence of various peptides was studied.

PDGF-β receptor [3] = molecular target: T3, PDGF-β receptor (Sus scrofa, UniProt A0A8W4FFG6); assay: Autophosphorylation and dimerization of partially purified PDGF-β receptor; assay type: biochemical, porcine
T3 construct: from Triton X-100 solubilized porcine uterus membranes and purified up to the Mono-Q chromatography step; from tissue; host or cells: porcine uterus membranes
Description: A preparation of PDGF-β receptor, from Triton X-100 solubilized porcine uterus membranes and purified up to the Mono-Q chromatography step of Ronnstrand et al., J. Biol. Chem. 262: 2929-2932 (1987), was made, and the autophosphorylation assay described therein was carried out.
Approximately 100 ng of the receptor was incubated for 5 minutes at 0° C. with peptide 16T or peptide 20, at different concentrations. […] Four ul of 150 μM [^32 P]ATP (containing 5×10^6 cpm of radioactivity) was added, followed by an additional 10 minutes of incubation at 0° C. Incorporation of radioactivity was terminated by adding 5 μl of 15 mM unlabelled ATP and 5 μl of 40 mM phenylphosphate. Samples were cross linked by incubating with 0.5 mM DSS (12.5 mM, in dimethyl sulfoxide) for 30 minutes at room temperature. The cross linking reaction was blocked by adding 50 mM methylammonium chloride, 20 mM Hepes, pH 7.4.

EGF receptor = molecular target: T4, EGF receptor (Homo sapiens, UniProt P00533); assay: Competition with 125I-EGF for binding to AG1518 fibroblasts
T4 construct: cultures of human foreskin fibroblast cell line AG1518; endogenous in cells; host or cells: human foreskin fibroblasts (AG1518)
Description: as §1, §2

[4] = read-out: Inhibitory Activity: ability to compete with PDGF-BB for binding (peptide needed to decrease binding by 50%), AG1518 cells, 0° C., asterisk = homogeneous peptide, otherwise crude
[5] = AG1518 cells, 0° C., asterisk = homogeneous peptide, otherwise crude
[6] = AG1518 cells, competing activity

T2 sequence (P09619 33-1106): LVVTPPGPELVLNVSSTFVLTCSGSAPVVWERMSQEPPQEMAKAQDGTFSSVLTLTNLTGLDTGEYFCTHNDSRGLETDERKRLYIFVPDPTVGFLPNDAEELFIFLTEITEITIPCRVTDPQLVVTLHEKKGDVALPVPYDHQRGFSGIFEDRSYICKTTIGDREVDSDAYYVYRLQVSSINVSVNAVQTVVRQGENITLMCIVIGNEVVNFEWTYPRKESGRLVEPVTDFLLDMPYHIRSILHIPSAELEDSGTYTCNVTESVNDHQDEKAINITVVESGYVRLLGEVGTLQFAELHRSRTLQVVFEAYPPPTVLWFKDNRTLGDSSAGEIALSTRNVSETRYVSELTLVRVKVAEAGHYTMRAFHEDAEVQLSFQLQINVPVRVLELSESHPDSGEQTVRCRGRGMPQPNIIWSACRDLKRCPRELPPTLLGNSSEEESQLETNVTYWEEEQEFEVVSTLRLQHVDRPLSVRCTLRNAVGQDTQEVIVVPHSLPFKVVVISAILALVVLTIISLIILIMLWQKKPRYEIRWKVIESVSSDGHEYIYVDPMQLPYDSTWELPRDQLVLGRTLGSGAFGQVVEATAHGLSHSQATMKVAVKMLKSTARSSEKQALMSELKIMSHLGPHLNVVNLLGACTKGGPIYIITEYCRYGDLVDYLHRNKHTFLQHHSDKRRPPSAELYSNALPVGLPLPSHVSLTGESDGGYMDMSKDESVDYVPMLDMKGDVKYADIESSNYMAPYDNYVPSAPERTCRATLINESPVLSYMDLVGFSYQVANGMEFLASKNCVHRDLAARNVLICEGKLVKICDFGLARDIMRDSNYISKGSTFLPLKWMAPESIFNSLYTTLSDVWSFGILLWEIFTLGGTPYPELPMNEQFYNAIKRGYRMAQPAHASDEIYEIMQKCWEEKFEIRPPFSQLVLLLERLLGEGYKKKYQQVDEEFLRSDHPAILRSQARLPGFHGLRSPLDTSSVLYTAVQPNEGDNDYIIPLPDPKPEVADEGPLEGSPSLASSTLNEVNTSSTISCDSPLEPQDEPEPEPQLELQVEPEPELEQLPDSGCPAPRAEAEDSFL
T1 sequence (P16234 24-1089): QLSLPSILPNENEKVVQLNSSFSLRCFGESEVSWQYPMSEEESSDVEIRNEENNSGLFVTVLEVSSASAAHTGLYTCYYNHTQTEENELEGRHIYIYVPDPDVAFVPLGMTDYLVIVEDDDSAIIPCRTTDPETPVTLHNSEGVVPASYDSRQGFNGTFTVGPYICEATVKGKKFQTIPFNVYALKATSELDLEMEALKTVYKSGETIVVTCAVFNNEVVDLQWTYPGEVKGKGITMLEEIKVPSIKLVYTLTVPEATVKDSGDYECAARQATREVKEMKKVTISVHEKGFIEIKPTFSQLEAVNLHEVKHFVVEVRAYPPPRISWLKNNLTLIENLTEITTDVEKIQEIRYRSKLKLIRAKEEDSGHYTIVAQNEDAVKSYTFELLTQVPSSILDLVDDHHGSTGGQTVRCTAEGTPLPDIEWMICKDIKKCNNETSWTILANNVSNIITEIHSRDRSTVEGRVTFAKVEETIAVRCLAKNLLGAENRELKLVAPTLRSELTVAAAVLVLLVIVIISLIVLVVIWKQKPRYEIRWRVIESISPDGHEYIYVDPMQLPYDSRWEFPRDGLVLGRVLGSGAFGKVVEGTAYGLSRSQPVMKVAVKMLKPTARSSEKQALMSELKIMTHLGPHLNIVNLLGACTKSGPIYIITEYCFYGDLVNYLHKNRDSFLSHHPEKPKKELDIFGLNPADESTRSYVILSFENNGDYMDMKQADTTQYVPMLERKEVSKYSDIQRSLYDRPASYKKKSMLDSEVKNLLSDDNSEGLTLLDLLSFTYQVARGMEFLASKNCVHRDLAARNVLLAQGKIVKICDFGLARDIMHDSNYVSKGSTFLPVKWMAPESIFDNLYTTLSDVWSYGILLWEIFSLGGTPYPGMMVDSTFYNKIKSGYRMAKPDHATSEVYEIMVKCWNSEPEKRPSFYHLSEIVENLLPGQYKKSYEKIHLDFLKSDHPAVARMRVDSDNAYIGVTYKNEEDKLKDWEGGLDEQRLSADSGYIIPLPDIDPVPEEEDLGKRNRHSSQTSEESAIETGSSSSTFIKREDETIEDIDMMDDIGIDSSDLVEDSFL
T3 sequence (A0A8W4FFG6 32-1102): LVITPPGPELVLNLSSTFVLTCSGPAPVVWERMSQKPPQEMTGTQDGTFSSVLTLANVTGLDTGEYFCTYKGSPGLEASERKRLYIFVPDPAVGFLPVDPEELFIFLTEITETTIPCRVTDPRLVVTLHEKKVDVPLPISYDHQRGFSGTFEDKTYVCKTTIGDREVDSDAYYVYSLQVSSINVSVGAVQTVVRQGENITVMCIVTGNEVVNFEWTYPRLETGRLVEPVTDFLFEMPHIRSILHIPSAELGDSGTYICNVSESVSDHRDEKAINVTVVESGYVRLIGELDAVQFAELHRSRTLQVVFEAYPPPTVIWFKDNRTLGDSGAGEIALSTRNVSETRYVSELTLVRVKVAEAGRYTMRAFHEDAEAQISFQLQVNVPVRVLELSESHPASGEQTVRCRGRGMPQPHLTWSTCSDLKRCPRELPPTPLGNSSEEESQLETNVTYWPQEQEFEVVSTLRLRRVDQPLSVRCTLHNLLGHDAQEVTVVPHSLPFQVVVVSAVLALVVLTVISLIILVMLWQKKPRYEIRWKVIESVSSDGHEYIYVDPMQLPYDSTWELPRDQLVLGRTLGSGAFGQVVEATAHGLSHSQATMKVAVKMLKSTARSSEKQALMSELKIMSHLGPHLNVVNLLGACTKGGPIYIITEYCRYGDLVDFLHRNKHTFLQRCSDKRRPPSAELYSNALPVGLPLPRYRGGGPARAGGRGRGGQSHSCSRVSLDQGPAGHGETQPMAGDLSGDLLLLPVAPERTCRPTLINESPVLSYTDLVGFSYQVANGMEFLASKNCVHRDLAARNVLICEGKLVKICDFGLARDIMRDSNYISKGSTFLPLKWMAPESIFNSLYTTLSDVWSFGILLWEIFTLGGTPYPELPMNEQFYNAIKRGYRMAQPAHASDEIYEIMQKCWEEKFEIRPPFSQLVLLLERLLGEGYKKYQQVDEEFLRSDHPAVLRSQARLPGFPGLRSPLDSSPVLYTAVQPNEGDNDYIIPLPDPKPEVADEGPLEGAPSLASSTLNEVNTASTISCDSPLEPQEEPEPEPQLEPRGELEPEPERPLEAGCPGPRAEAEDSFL
T4 sequence (P00533 25-1210): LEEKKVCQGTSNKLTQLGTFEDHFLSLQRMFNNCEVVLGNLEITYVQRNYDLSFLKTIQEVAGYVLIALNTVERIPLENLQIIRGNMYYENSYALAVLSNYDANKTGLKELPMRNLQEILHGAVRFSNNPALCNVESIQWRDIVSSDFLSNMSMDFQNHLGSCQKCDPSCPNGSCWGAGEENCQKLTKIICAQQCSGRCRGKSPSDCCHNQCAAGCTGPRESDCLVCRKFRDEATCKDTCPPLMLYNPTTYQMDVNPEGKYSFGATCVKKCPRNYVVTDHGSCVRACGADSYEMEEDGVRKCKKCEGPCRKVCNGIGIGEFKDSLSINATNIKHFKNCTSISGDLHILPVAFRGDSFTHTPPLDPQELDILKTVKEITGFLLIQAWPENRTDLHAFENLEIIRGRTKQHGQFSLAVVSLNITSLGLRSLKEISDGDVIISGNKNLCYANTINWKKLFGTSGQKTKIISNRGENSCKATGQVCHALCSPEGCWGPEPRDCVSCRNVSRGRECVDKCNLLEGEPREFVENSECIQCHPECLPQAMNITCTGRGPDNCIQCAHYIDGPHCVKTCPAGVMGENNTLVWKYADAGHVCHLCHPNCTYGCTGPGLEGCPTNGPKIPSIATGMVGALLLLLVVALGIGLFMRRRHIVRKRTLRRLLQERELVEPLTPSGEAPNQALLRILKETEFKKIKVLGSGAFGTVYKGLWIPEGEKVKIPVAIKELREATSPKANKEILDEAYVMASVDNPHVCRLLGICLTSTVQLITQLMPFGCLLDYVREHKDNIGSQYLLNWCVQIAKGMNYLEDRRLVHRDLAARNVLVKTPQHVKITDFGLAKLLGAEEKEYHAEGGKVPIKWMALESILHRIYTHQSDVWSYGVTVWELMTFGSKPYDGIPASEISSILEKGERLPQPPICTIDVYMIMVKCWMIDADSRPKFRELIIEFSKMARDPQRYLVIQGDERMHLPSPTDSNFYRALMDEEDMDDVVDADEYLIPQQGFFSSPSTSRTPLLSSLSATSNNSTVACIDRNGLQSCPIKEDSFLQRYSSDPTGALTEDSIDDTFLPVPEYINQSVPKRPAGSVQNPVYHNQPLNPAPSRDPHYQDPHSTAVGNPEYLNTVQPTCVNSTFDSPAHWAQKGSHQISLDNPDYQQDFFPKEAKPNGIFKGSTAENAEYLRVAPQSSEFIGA

Compound: ANFLVWPPCVEVQLRPVQVRKIEIVRKKP [Peptide 7]
- IC50 (PDGF-α receptor; α receptor, read-out: 50% competition for receptor binding): ~6 µM
- IC50 (PDGF-β receptor [1]; [4]): < 30 µM
- IC50 (PDGF-β receptor [1]; β receptor, read-out: 50% competition for receptor binding): ~6 µM

Compound: EGF: ligand of the EGF receptor, used as control growth factor
- [3H]thymidine incorporation, ligand alone ([2]; mean of duplicates): 2591 cpm

Compound: ANFLVWEIVRKKP [Peptide 16]
- Effect on ligand stimulated [3H]thymidine incorporation (in words) ([2]; PDGF-AA, PDGF-BB or EGF stimulation): did inhibit PDGF-AA and PDGF-BB induced mitogenicity, but also EGF induced mitogenicity
- [3H]thymidine incorporation, Control ([2]; peptide present, no ligand, mean of duplicates): 241 cpm
- [3H]thymidine incorporation, EGF ([2]; peptide present, stimulated with EGF, mean of duplicates): 216 cpm
- [3H]thymidine incorporation, PDGF-AA ([2]; peptide present, stimulated with PDGF-AA, mean of duplicates): 242 cpm
- [3H]thymidine incorporation, PDGF-BB ([2]; peptide present, stimulated with PDGF-BB, mean of duplicates): 281 cpm
- Amount of peptide giving complete inhibition of dimerization and autophosphorylation (PDGF-β receptor [3]; nearly complete for 16T, complete for 16, about 100 ng receptor, 100 ng PDGF-BB, 40 ul): 20 µg
- Effect on dimerization and autophosphorylation (in words) (PDGF-β receptor [3]; peptide 20: concentrations up to 20 μg): intermediate effect
- Receptor competing activity, PDGF-AA binding (in words) (PDGF-α receptor): marginal effect
- Receptor competing activity, PDGF-AA binding (in words) (PDGF-α receptor; listed as 16*): very low activity
- Competition for binding of 125I-EGF to the EGF receptor (in words) (EGF receptor): none of peptides 16, 16T, 20 and 20T compete
- IC50 (PDGF-β receptor [1]; [5]): < 30 µM
- Receptor competing activity, PDGF-BB binding (in words) (PDGF-β receptor [1]; [6]): maintained most of the receptor competing activity; also recorded: marginal effect

Compound: EAFIKWLVRNKVP [*20, reference compound]
- IC50 (PDGF-β receptor [1]; [5]): > 150 µM

Compound: PDGF-AA: platelet derived growth factor A chain homodimer
- [3H]thymidine incorporation, ligand alone ([2]; mean of duplicates): 677 cpm
- Stimulation of [3H]thymidine incorporation by ligand ([2]; no peptide, versus unstimulated control): lower stimulation

Compound: CC[C@H](C)[C@H](NC(=O)[C@H](CCC(=O)O)NC(=O)[C@H](Cc1c(Sc2ccccc2[N+](=O)[O-])[nH]c2ccccc12)NC(=O)[C@@H](NC(=O)[C@H](CC(C)C)NC(=O)[C@H](Cc1ccccc1)NC(=O)[C@H](CC(N)=O)NC(=O)[C@H](C)N)C(C)C)C(=O)N[C@H](C(=O)N[C@@H](CCCNC(=N)N)C(=O)N[C@@H](CCCCN)C(=O)N[C@@H](CCCCN)C(=O)N1CCC[C@H]1C(=O)O)C(C)C [*16NPS] (H-ANFLV[X2]EIVRKKP-OH; N-terminus and C-terminus assumed)
- IC50 (PDGF-β receptor [1]; [5]): < 30 µM
- Receptor competing activity, PDGF-BB binding (in words) (PDGF-β receptor [1]; AG1518 cells, general text statements on competing activity placed here, listed as 16 NPS): more active as an antagonist than peptide 16
- Receptor competing activity, PDGF-BB binding (in words) (PDGF-β receptor [1]; AG1518 cells, general text statements on competing activity placed here, listed as 16NPS): increased activity as an antagonist

Compound: KIEIVRKKPIFKKATVTLEDHLASKC [Peptide 1]
- IC50 (PDGF-β receptor [1]; [4]): > 150 µM

Compound: CRPTQVQLRPVQVRKIEIVRKKP [Peptide 2]
- IC50 (PDGF-β receptor [1]; [4]): > 150 µM

Compound: WPPCVEVQLRPVQVRKIEIVRKKP [Peptide 8]
- Receptor competing activity, PDGF-BB binding (in words) (PDGF-β receptor [1]; [6]): nearly devoid of activity
- IC50 (PDGF-β receptor [1]; [4]): > 150 µM
